Where two headings read alike, the source gives them in different places.
Columns and labels:
[1] = system: Katze; experiment: Antitussive effect in the cat, method of Domenjoz; type: in vivo; conditions: dose range 0,5 bis 2 mg/kg i.v.
[2] = Acute toxicity in mice; conditions: mouse, in vivo, mice of both sexes, 20 g, 14 days observation
Protocol: Für die Bestimmung der akuten Toxizität wurden Mäuse beider Geschlechter mit einem Körpergewicht von 20 g verwendet. 10 Tiere pro Dosis erhielten die Substanz einmalig appliziert. Die Berechnung der DL50, der Dosis, nach deren Verabreichung 50 % der Tiere innerhalb der Beobachtungszeit verstarben, erfolgte i nach der Methode von LITCHFIELD und WILCOXON nach einer Beobachtungszeit von 14 Tagen: • Racemat CL50 p.o.: 545 mg/kg DL50 i.v.: 66 mg/kg, […]

[3] = system: durch Acetylcholin hervorgerufenen Bronchialspasmen; experiment: Broncholytic effect in guinea pigs, method of Konzett and Rössler (acetylcholine-induced bronchospasm); type: in vivo, Meerschweinchen; conditions: Cavia porcellus, iv, i.v. injection, dose giving 50 % reduction, read-out: Herabsetzung der durch Acetylcholin hervorgerufenen Bronchialspasmen um 50 %
Protocol: Die broncholytische Wirkung wurde an Meerschweinchen nach der Methode von KONZETT und RÖSSLER (Arch. exp. Path. Pharmakol. 195, 71, (1940)) geprüft. Die Herabsetzung der durch Acetyl- cholin hervorgerufenen Bronchialspasmen um 50 % wurde durch i.v.-Injektion von 1,5 mg/kg des Racemats erreicht, beim (-)-Enantiomeren reichten bereits 1 mg/kg aus, um etwa den gleichen Effekt zu erreichen.

[4] = system: wachen weißen Ratten; experiment: Cough test in conscious rats, cough provoked by inhaled citric acid spray; type: in vivo; conditions: Rattus norvegicus, po, 0.5 h; male rats, per os as Tylose suspension, 7,5 % citric acid spray over 2 min, cough count 30 min after application, dose halving the number of coughs
From the text: Die Hustenversuche wurden an wachen weißen Ratten (Geschlecht: männlich) durchgeführt. Die Hustenprovokation erfolgte durch Inhalation eines 7,5 %igen Zitronensäuresprays über 2 Minuten. 10 Tiere pro Dosis erhielten die Substanz als Tyloseaufschwemmung peroral appliziert. Die Bewertung erfolgte aus der durchschnittlichen prozentualen Abnahme der Zahl der Hustenstöße 30 Minuten nach Applikation gegenüber den Leerwerten. (Weitere methodische Angaben: ENGELHORN und PÜSCHMANN, Arzneim.-Forsch. 13, 474-480,(1963)). Die ED50 ist die Dosis, nach deren Verabreichung die Zahl der Hustenstöße durchschnittlich um die Hälfte vermindert wird, die Berechnung erfolgte nach der Methode von Litchfield und Wilcoxon. Es wurde für das Racemat eine ED50 von 3,9 mg/kg per os gefunden.

[5] = po, single dose p.o., read-out: DL50 p.o.

CC(CC1(c2ccccc2)c2ccccc2N(C=O)C1C)N(C)C (single isomer, unassigned; (+)) [(+)-Enantiomeres, (+)-2,3-Dihydro-2-methyl-3-[2-(dimethylamino)-propyl]-3-phenyl-1H-indol-1-carboxaldehyd]
antitussive Wirkung [1]: deutliche hustenstillende Wirkung
LD50 at 336 h [2, 5]: ~500 mg/kg

CC(CC1(c2ccccc2)c2ccccc2N(C=O)C1C)N(C)C (single isomer, unassigned; (-)) [(-)-Enantiomeres, (-)-2,3-Dihydro-2-methyl-3-/2-(dimethylamino)-propyl/-3-phenyl-1H-indol-1-carboxaldehyd]
LD50 at 336 h [2, 5]: ~560 mg/kg
ED50 [3]: ~1 mg/kg

CC(CC1(c2ccccc2)c2ccccc2N(C=O)C1C)N(C)C (racemic) [Racemat, Rac. 2,3-Dihydro-2-methyl-3-[2-(dimethylamino)-propyl]-3-phenyl-1H-indol-1-carboxaldehyd]
antitussive Wirkung [1]: deutliche hustenstillende Wirkung
LD50 at 336 h ([2]; iv, single dose i.v., read-out: DL50 i.v.): 66 mg/kg
LD50 at 336 h [2, 5]: 545 mg/kg
ED50 [4]: 3.9 mg/kg
ED50 [3]: 1.5 mg/kg

— patent publication EP0006128A1, “2,3-Dihydro-2-methyl-3-(2-(dimethylamino)-propyl)-3-phenyl-1H-indol-1-carboxaldehyde, process for its preparation and pharmaceutical preparations containing it” (Dr. Karl Thomae GmbH, priority 1978, dated 1980)
